Experimental data from ChEMBL document CHEMBL1201862, “PubChem BioAssay data set” (2004).
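All cell lines were grown in 96-well plates and treated with compound for 48 hours. Abbreviation: GI50, concentration required for 50% inhibition of growth.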 Calls of active or inactive are those of the source. Cut-off read from the data, not from the text of the source: active = GI50 up to about 1.1 µM and inactive = higher.

What was measured:
Assay in all cases: growth of human tumour cells (NCI), 48 h
[1] = system: ACHN
[2] = system: EKVX
[3] = system: LOX IMVI
[4] = system: TK-10
[5] = system: M19-MEL
[6] = system: A549
[7] = system: MOLT-4
[8] = system: SR
[9] = system: NCI-H522
[10] = system: OVCAR-4
[11] = system: A498
[12] = system: HL-60
[13] = system: 786-0
[14] = system: OVCAR-3
[15] = system: SF-295
[16] = system: DMS-273
[17] = system: UACC-257
[18] = system: IGROV-1
[19] = system: NCI-H23
[20] = system: HCT-15
[21] = system: SW-620
[22] = system: CCRF-CEM
[23] = system: M14
[24] = system: KM12
[25] = system: SK-MEL-5
[26] = system: NCI-H460
[27] = system: SNB-78
[28] = system: HCT-116
[29] = system: OVCAR-5
[30] = system: RXF 393
[31] = system: SK-OV-3
[32] = system: XF498
[33] = system: SK-MEL-2
[34] = system: KM-20L2
[35] = system: SF-539
[36] = system: UACC-62
[37] = system: HOP-62
[38] = system: HOP-18
[39] = system: K562
[40] = system: DMS-114
[41] = system: LXFL 529
[42] = system: SK-MEL-28
[43] = system: RPMI-8226
[44] = system: U-251
[45] = system: NCI-H226
[46] = system: DLD-1
[47] = system: SN12C
[48] = system: HT-29
[49] = system: COLO 205
[50] = system: SF-268
[51] = system: Malme-3M
[52] = system: HCC 2998
[53] = system: OVCAR-8
[54] = system: MDA-MB-231
[55] = system: MDA-N
[56] = system: PC-3
[57] = system: T47D
[58] = system: CAKI-1
[59] = system: HOP-92
[60] = system: MCF7
[61] = system: UO-31
[62] = system: SNB-75
[63] = system: BT-549
[64] = system: MDA-MB-435
[65] = system: SNB-19
[66] = system: DU-145
[67] = system: Hs-578T

## C=C1Cc2cc(OC)c(OC)c(OC)c2-c2ccc(SC)c(=O)cc21
[1]
  GI50: < 10 nM (active)
[2]
  GI50: 1550 nM (inactive)
[3]
  GI50: < 10 nM (active)
[4]
  GI50: 916 nM (active)
[5]
  GI50: < 10 nM (active)
[6]
  GI50: < 10 nM (active)
[7]
  GI50: < 10 nM (active)
[8]
  GI50: < 10 nM (active)
[9]
  GI50: < 10 nM (active)
[10]
  GI50: 4260 nM (inactive)
[11]
  GI50: < 10 nM (active)
[12]
  GI50: < 10 nM (active)
[13]
  GI50: < 10 nM (active)
[14]
  GI50: < 10 nM (active)
[15]
  GI50: < 10 nM (active)
[16]
  GI50: < 10 nM (active)
[17]
  GI50: 361 nM (active)
[18]
  GI50: < 42.4 nM (active)
[19]
  GI50: < 10 nM (active)
[20]
  GI50: < 10 nM
[21]
  GI50: < 10 nM (active)
[22]
  GI50: < 10 nM (active)
[23]
  GI50: < 10 nM (active)
[24]
  GI50: < 10 nM (active)
[25]
  GI50: < 10 nM (active)
[26]
  GI50: < 10 nM (active)
[27]
  GI50: < 10 nM (active)
[28]
  GI50: < 10 nM (active)
[29]
  GI50: 378 nM (active)
[30]
  GI50: < 10 nM (active)
[31]
  GI50: < 10 nM (active)
[32]
  GI50: < 10 nM (active)
[33]
  GI50: < 10 nM (active)
[34]
  GI50: < 10 nM (active)
[35]
  GI50: < 10 nM (active)
[36]
  GI50: < 10 nM (active)
[37]
  GI50: < 10 nM (active)
[38]
  GI50: 4920 nM (inactive)
[39]
  GI50: < 10 nM (active)
[40]
  GI50: < 10 nM (active)
[41]
  GI50: < 10 nM (active)
[42]
  GI50: < 10 nM (active)
[43]
  GI50: < 10 nM (active)
[44]
  GI50: < 10 nM (active)
[45]
  GI50: < 10 nM (active)
[46]
  GI50: < 10 nM (active)
[47]
  GI50: < 10 nM (active)
[48]
  GI50: < 10 nM (active)
[49]
  GI50: < 10 nM (active)
[50]
  GI50: < 10 nM (active)
[51]
  GI50: < 10 nM (active)
[52]
  GI50: < 10 nM (active)
[53]
  GI50: < 10 nM (active)

## CC(C)Cc1ccc(C(C)/C=C2\CCC(CN3CCCCC3)C2=O)cc1 (stereo not given)
[1]
  GI50: 6980 nM (inactive)
[2]
  GI50: 13600 nM (inactive)
[3]
  GI50: 2010 nM (inactive)
[4]
  GI50: 3270 nM (inactive)
[5]
  GI50: 2540 nM (inactive)
[6]
  GI50: 20000 nM (inactive)
[7]
  GI50: 1630 nM (inactive)
[8]
  GI50: 1650 nM (inactive)
[9]
  GI50: 1350 nM (inactive)
[10]
  GI50: 3780 nM (inactive)
[11]
  GI50: 14300 nM (inactive)
[12]
  GI50: 1120 nM (inactive)
[13]
  GI50: 1850 nM (inactive)
[54]
  GI50: 4890 nM (inactive)
[14]
  GI50: 4030 nM (inactive)
[15]
  GI50: 13300 nM (inactive)
[16]
  GI50: 2860 nM (inactive)
[55]
  GI50: 3700 nM (inactive)
[17]
  GI50: 12700 nM (inactive)
[56]
  GI50: 6310 nM (inactive)
[18]
  GI50: 4250 nM (inactive)
[19]
  GI50: 7290 nM (inactive)
[20]
  GI50: 2750 nM
[21]
  GI50: 3450 nM (inactive)
[22]
  GI50: 1500 nM (inactive)
[57]
  GI50: 5090 nM (inactive)
[23]
  GI50: 6100 nM (inactive)
[24]
  GI50: 2560 nM (inactive)
[58]
  GI50: 6870 nM (inactive)
[59]
  GI50: 10100 nM (inactive)
[25]
  GI50: 13500 nM (inactive)
[60]
  GI50: 1640 nM (inactive)
[26]
  GI50: 26700 nM (inactive)
[27]
  GI50: 5740 nM (inactive)
[61]
  GI50: 10600 nM (inactive)
[28]
  GI50: 3870 nM (inactive)
[29]
  GI50: 17400 nM (inactive)
[30]
  GI50: 2520 nM (inactive)
[31]
  GI50: 20500 nM (inactive)
[32]
  GI50: 6780 nM (inactive)
[33]
  GI50: 13300 nM (inactive)
[62]
  GI50: 15600 nM (inactive)
[34]
  GI50: 10400 nM (inactive)
[35]
  GI50: 4540 nM (inactive)
[63]
  GI50: 18500 nM (inactive)
[64]
  GI50: 13600 nM (inactive)
[36]
  GI50: 10500 nM (inactive)
[37]
  GI50: 8690 nM (inactive)
[65]
  GI50: 12000 nM (inactive)
[38]
  GI50: 16600 nM (inactive)
[39]
  GI50: 2460 nM (inactive)
[40]
  GI50: 2220 nM (inactive)
[41]
  GI50: 1910 nM (inactive)
[42]
  GI50: 3210 nM (inactive)
[66]
  GI50: 16200 nM (inactive)
[43]
  GI50: 611 nM (active)
[44]
  GI50: 2140 nM (inactive)
[45]
  GI50: 14700 nM (inactive)
[46]
  GI50: 2330 nM (inactive)
[47]
  GI50: 2120 nM (inactive)
[48]
  GI50: 5120 nM (inactive)
[67]
  GI50: 4710 nM (inactive)
[49]
  GI50: 5810 nM (inactive)
[50]
  GI50: 3660 nM (inactive)
[51]
  GI50: 16600 nM (inactive)
[52]
  GI50: 6370 nM (inactive)
[53]
  GI50: 5180 nM (inactive)
